PMC11915366 (ACS infectious diseases, 2025)

How the values were obtained:
M. smegmatis mc^2155 = test: Checkerboard FICI, M. smegmatis mc^2155 expressing TetX-HA; type: cell-based; conditions: combination with Tetracycline
Tet50 = target: T1, Tet50 (Unknown prokaryotic organism, UniProt A0A059WYP6); conditions: Tet(50); cited from earlier work
T1 sequence (A0A059WYP6 1-388): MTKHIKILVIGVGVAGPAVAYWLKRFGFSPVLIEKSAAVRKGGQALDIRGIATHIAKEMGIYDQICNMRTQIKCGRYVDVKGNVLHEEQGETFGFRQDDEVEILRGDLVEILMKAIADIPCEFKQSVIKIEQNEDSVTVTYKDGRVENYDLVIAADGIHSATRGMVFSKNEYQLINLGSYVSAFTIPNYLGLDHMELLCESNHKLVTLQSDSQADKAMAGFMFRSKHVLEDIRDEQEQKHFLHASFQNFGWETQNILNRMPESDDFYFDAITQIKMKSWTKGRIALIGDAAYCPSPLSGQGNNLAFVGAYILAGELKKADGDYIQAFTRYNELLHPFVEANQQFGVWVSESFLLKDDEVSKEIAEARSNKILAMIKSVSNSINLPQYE

P. aeruginosa Pa-3 = test: Checkerboard FICI, P. aeruginosa Pa-3; type: cell-based
E. coli DH5αZ1 = test: Checkerboard FICI, E. coli DH5αZ1; type: cell-based
P. aeruginosa PA 27853 = test: Checkerboard FICI, P. aeruginosa PA 27853; type: cell-based
human red blood cells = type: cell-based; conditions: concentrations up to 500 μM (~250 μg/mL); 1 hour at 37 °C
[1] = system: E. coli DH5αZ1 expressing TetX7 or Tet50 from pZE24 plasmid; conditions: E. coli expressing TetX7 and Tet50; cited from earlier work
[2] = system: E. coli DH5αZ1 expressing TetX7 or Tet50 from pZE24 plasmid; test: MIC by microbroth dilution, inhibitor alone or with fixed 8 μg/mL TC; type: cell-based; conditions: fixed TC concentration of 8 μg/mL; inhibitor concentration needed to rescue TC activity
[3] = system: E. coli DH5αZ1+pZE24-TetX7; test: Checkerboard FICI, E. coli DH5αZ1+pZE24-TetX7; type: cell-based; conditions: combination with Tetracycline
E. coli DH5αZ1+pZE24 = test: Checkerboard FICI, E. coli DH5αZ1+pZE24; type: cell-based; conditions: combination with Tetracycline; E. coli DH5αZ1+pZE24 (empty vector)
[4] = system: E. coli DH5αZ1+pZE24-Tet50; test: Checkerboard FICI, E. coli DH5αZ1+pZE24-Tet50; type: cell-based; conditions: combination with Tetracycline
TetX7 = TetX7 (Pseudomonas aeruginosa, UniProt Q7X2A0); test: Apparent steady-state kinetics of NADPH consumption; type: biochemical; conditions: increasing inhibitor concentration, A340
Sequence of TetX7 (Q7X2A0 1-378): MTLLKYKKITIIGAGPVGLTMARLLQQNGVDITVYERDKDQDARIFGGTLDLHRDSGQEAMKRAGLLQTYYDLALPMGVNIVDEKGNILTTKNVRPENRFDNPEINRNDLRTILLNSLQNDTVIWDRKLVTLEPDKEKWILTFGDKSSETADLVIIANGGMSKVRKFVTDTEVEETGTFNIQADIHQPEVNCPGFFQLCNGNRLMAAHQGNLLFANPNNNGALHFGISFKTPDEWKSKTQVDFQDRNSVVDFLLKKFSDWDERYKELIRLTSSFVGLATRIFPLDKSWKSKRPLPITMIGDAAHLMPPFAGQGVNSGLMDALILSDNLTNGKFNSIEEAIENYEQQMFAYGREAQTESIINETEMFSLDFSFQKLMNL

[5] = type: in vitro ADME; conditions: E. coli cell lysate, 37 °C; LC-MS (A405 for acetate control)
[6] = combination with Tetracycline, P. aeruginosa PA 27853
[7] = combination with Tigecycline, P. aeruginosa PA 27853
[8] = combination with Tetracycline, P. aeruginosa PA 27853 (control lacking TetX7)

| Compound | Effect (M. smegmatis mc^2155) | FICI (M. smegmatis mc^2155) | Effect (P. aeruginosa Pa-3; combination with Tetracycline) | Effect (P. aeruginosa Pa-3; combination with Tigecycline) | Effect (E. coli DH5αZ1; combination with Tetracycline) | FICI (E. coli DH5αZ1; combination with Tetracycline) | Effect (E. coli DH5αZ1; combination with Tigecycline) | FICI (E. coli DH5αZ1; combination with Tigecycline) | Effect (P. aeruginosa PA 27853; [6]) | Effect (P. aeruginosa PA 27853; [7]) | MIC of inhibitor combined with TC [2] | Effect [3] | FICI [3] | Effect (E. coli DH5αZ1+pZE24) | FICI (E. coli DH5αZ1+pZE24) | FICI (P. aeruginosa PA 27853; [8]) | FICI (P. aeruginosa PA 27853; [7]) | Effect [4] | FICI [4] | other results |
| --- | --- | --- | --- | --- | --- | --- | --- | --- | --- | --- | --- | --- | --- | --- | --- | --- | --- | --- | --- | --- |
| Cc1c2c(c(O)c3c(O)cccc13)C(=O)[C@]1(O)C(=O)C(C(N)=O)=C(O)[C@@H](N(C)C)[C@@H]1C2 [aTC, anhydrotetracycline, reference compound] | Indifferent | 1 | Synergetic | Synergetic | Indifferent | >1 | Indifferent | >1 | Additive | Additive | – | – | – | – | – | – | – | – | – | Kapp of NADPH consumption (Tet50): 2.0 ± 0.3 µM; Hemolysis (human red blood cells): No hemolysis |
| CN(C)[C@@H]1C(O)=C(C(N)=O)C(=O)[C@@]2(O)C(O)=C3C(=O)c4c(O)cccc4[C@@](C)(O)[C@H]3C[C@@H]12 [TC, tetracycline] | – | – | – | – | – | – | – | – | – | – | – | – | – | – | – | – | – | – | – | MIC of TC [1]: > 8 µg/mL |
| Cc1c2c(c(O)c3c(OC(=O)c4cccnc4)cccc13)C(=O)[C@]1(O)C(=O)C(C(N)=O)=C(O)[C@@H](N(C)C)[C@@H]1C2 [Inhibitor 8] | Additive/Indifferent | 0.75–1 | Indifferent | Additive | Indifferent | >1 | Indifferent | >1 | Indifferent | Indifferent | 4 µg/mL | Synergetic | 0.375 | Indifferent | 1 | >1 | >1 | Synergetic | 0.265 | Vmax of NADPH consumption (TetX7): 0.05 ± 0.02 min⁻¹ |
| CC(=O)Oc1ccc([N+](=O)[O-])cc1 [p-NO2-phenyl acetate] | – | – | – | – | – | – | – | – | – | – | – | – | – | – | – | – | – | – | – | Stability toward hydrolysis in cell lysate [5]: time- and lysate-dependent increase in A405 |
| Cc1c2c(c(O)c3c(OC(=O)c4ccccn4)cccc13)C(=O)[C@]1(O)C(=O)C(C(N)=O)=C(O)[C@@H](N(C)C)[C@@H]1C2 [Inhibitor 7] | Additive/Indifferent | 0.75–1 | Indifferent | Synergetic | Additive | – | Indifferent | >1 | Indifferent | Indifferent | 2 µg/mL | Additive | 0.625 | Indifferent | 1.125 | >1 | >1 | Additive | 0.625 | – |
